Source: US10525106B2, “Angiopoietin-based interventions for treating cerebral malaria” (Regeneron Pharmaceuticals, Inc., priority 2013, dated 2020)

What was measured:
[1] = system: Plasmodium berghei ANKA (PbA); assay: Parasitemia by thin-blood smear; format: in vivo; details: C57Bl/6 mice, 10 mg/kg artesunate Day 5 sc (Example 4)
Text: (§1) Cryopreserved Plasmodium berghei ANKA (PbA; MR4, Manassas, Va.) was passaged through naïve C57Bl/6 mice. For the experiment, infection was initiated in C57Bl/6 and BALB/c mice by intraperitoneal (ip) injection of 1×10^6 freshly-isolated parasitized erythrocytes (PE) obtained from donor passage mice. Parasitemia was monitored by thin-blood smear stained with modified Geimsa stain (Protocol Hema3 Stain Set, Sigma, Oakville, ON) by counting at least 1500 erythrocytes. The infected mice were monitored for survival, neurological impairment, vascular leakage, parasite burden, and levels of angiogenic factors and markers of endothelial activation.

[2] = system: Plasmodium berghei ANKA (PbA)-induced experimental cerebral malaria; assay: Survival of mice infected with PbA (Kaplan Meier, log rank test); format: in vivo; details: C57Bl/6 mice, 10 mg/kg artesunate Day 5 sc, alone (Example 4)
Text: as §1
Post-infection survival of mice was plotted as Kaplan Meier curves using a log rank test for comparison. Quantitative assessment of ECM-associated neurological impairment (impaired coordination and motor performance) was performed daily using the 10 parameter Rapid Murine Coma and Behavioral Score (RMCBS), as previously described by Carroll R W, et al. 2010 in PLoS ONE 5: e13124. […] Total scores for each mouse were calculated and provided as a percentage of the total possible score. […]
Statistical analysis was performed using GraphPad Prism version 4.00 (San Diego, Calif.). Post-infection survival of mice was plotted as Kaplan Meier curves and assessed using log-rank test. […]

For `C[C@H]1[C@H](OC(=O)CCC(=O)O)O[C@@H]2O[C@@]3(C)CC[C@H]4[C@H](C)CC[C@@H]1[C@@]24OO3` [artesunate, reference compound], the “parasitemia (parasite burden diminished to pre-ECM levels)” value [1] was under 2%, the “survival by Day 8 post infection” value [2] was “less than 60%” and the “treated mice that died of ECM” value [2] was 41.7%.
